Legend:
Experiment in all cases: relative viability (nuclei count vs DMSO), 5 days (fraction); higher = more cells survive
[1] = compound: NCC(=O)Nc1ccc(-n2nc(C(F)(F)F)cc2-c2ccc3c(ccc4ccccc43)c2)cc1 + NC(=O)Nc1cc(-c2cccc(F)c2)sc1C(=O)N[C@H]1CCCNC1 [AZD7762] (partner 0.2 µM)
In short: (§1)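 Lung cancer cell lines were pin-tool dosed in 1536-well plates on the day after seeding, with either a lone drug or a fixed anchor-drug dose plus five library-drug doses (not always all listed) in √10 steps. Nuclei were counted on 4× images after 5 days. Relative viability is the ratio of treated-well to vehicle-well nuclei counts, with each value a median of duplicate plates.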

[2] = compound: NCC(=O)Nc1ccc(-n2nc(C(F)(F)F)cc2-c2ccc3c(ccc4ccccc43)c2)cc1 + CCNC(=O)c1noc(-c2cc(C(C)C)c(O)cc2O)c1-c1ccc(CN2CCOCC2)cc1 [Luminespib] (partner 0.01 µM)
In short: as §1

[3] = compound: NCC(=O)Nc1ccc(-n2nc(C(F)(F)F)cc2-c2ccc3c(ccc4ccccc43)c2)cc1 + COc1cccc2cc(-c3nc([C@H]4CC[C@H](C(=O)O)CC4)n4ncnc(N)c34)[nH]c12 [OSI-027] (partner 0.5 µM)
In short: as §1

[4] = compound: NCC(=O)Nc1ccc(-n2nc(C(F)(F)F)cc2-c2ccc3c(ccc4ccccc43)c2)cc1 + CS(=O)(=O)CCNCc1ccc(-c2ccc3ncnc(Nc4ccc(OCc5cccc(F)c5)c(Cl)c4)c3c2)o1 [Lapatinib] (partner 2 µM)
In short: as §1

| Cell Line | relative viability ([1]; first compound 0.02 µM) | relative viability ([1]; first compound 0.06325 µM) | relative viability ([1]; first compound 0.2 µM) | relative viability ([1]; first compound 0.6325 µM) | relative viability ([1]; first compound 2 µM) | relative viability ([2]; first compound 0.02 µM) | relative viability ([2]; first compound 0.06325 µM) | relative viability ([2]; first compound 0.2 µM) | relative viability ([2]; first compound 0.6325 µM) | relative viability ([2]; first compound 2 µM) | relative viability ([3]; first compound 0.02 µM) | relative viability ([3]; first compound 0.06325 µM) | relative viability ([3]; first compound 0.2 µM) | relative viability ([3]; first compound 0.6325 µM) | relative viability ([3]; first compound 2 µM) | relative viability ([4]; first compound 0.02 µM) | relative viability ([4]; first compound 0.06325 µM) | relative viability ([4]; first compound 0.2 µM) | relative viability ([4]; first compound 0.6325 µM) | relative viability ([4]; first compound 2 µM) |
| --- | --- | --- | --- | --- | --- | --- | --- | --- | --- | --- | --- | --- | --- | --- | --- | --- | --- | --- | --- | --- |
| NCI-H1395 | 0.373 | 0.421 | 0.37 | 0.407 | 0.38 | 0.615 | 0.78 | 0.678 | 0.655 | 0.617 | 0.709 | 0.688 | 0.693 | 0.642 | 0.686 | 1.15 | 1.02 | 0.928 | 1.08 | 1.04 |
| NCI-H1437 | 0.974 | 1.21 | 1.13 | 1.1 | 1.11 | 1.11 | 0.991 | 1.13 | 1.12 | 1.05 | 0.889 | 0.898 | 0.877 | 0.881 | 0.951 | 0.768 | 0.76 | 0.751 | 0.84 | 0.78 |
| NCI-H1651 | 0.447 | 0.433 | 0.513 | 0.47 | 0.423 | 0.8 | 0.965 | 0.872 | 0.81 | 0.861 | 0.655 | 0.929 | 0.628 | 0.584 | 0.803 | 0.715 | 0.758 | 0.782 | 0.909 | 0.85 |
| NCI-H1666 | 0.75 | 0.844 | 0.919 | 0.868 | 0.91 | 0.982 | 1.06 | 0.925 | 1.07 | 0.93 | 0.932 | 0.836 | 0.945 | 0.845 | 0.861 | 0.59 | 0.61 | 0.588 | 0.744 | 0.604 |
| NCI-H1734 | 0.52 | 0.556 | 0.565 | 0.515 | 0.611 | 0.201 | 0.213 | 0.181 | 0.24 | 0.187 | 0.561 | 0.601 | 0.577 | 0.594 | 0.552 | 1.05 | 1.01 | 1.15 | 1.03 | 0.853 |
| NCI-H1755 | 0.448 | 0.569 | 0.448 | 0.394 | 0.449 | 0.449 | 0.621 | 0.305 | 0.426 | 0.541 | 0.711 | 0.68 | 0.685 | 0.71 | 0.759 | 1.01 | 1 | 1.07 | 1.02 | 1.06 |
| NCI-H1792 | 0.725 | 0.772 | 0.759 | 0.822 | 0.682 | 0.337 | 0.583 | 0.552 | 0.585 | 0.484 | 0.657 |  | 0.824 | 0.722 | 0.803 | 1 | 0.948 | 0.918 | 0.933 | 0.857 |
| NCI-H1793 | 0.434 | 0.568 | 0.573 | 0.447 | 0.742 | 0.398 | 0.155 | 0.18 | 0.192 | 0.213 | 0.26 | 0.263 | 0.321 | 0.276 | 0.251 | 0.659 | 0.684 | 0.743 | 0.886 | 0.84 |
